Experimental data taken from article PMC11464771, “Elucidation of Spartina dimethylsulfoniopropionate synthesis genes enables engineering of stress tolerant plants” (Nature Communications, 2024).

T1: MMT from Arabidopsis thaliana (Arabidopsis thaliana, UniProt Q9LTB2)
T1 construct: gene MMT1; recombinant, probably pMALc2x (MBP fusion), E. coli
T1 sequence (Q9LTB2 2-1071): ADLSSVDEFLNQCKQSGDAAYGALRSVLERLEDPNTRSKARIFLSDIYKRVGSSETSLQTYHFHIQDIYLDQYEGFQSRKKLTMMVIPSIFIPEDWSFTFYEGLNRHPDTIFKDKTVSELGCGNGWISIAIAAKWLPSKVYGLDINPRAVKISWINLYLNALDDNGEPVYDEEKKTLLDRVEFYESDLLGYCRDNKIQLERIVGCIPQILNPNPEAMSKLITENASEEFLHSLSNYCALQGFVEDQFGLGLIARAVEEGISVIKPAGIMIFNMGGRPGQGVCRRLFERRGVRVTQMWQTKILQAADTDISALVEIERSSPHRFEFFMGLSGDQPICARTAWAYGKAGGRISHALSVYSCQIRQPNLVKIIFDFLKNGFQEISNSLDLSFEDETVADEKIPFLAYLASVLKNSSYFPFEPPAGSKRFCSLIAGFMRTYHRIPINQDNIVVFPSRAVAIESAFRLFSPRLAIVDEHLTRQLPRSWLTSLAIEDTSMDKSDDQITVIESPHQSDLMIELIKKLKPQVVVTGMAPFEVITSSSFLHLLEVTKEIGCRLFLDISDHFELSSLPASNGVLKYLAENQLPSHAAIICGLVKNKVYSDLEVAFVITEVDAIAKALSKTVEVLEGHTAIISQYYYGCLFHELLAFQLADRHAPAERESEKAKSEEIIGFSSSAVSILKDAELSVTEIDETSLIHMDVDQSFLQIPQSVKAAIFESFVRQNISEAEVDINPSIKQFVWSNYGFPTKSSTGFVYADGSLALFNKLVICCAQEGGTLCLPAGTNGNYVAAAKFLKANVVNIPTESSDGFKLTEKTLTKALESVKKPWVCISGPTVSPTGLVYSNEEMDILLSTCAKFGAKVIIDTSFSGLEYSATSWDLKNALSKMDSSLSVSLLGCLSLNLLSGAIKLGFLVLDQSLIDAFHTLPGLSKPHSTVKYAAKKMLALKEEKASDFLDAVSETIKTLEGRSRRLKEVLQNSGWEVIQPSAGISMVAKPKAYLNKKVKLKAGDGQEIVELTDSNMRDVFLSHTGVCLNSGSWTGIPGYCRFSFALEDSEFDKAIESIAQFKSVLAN

T2: MMT from Hordeum vulgare (Hordeum vulgare, UniProt Q9MBC2)
T2 construct: gene MMT1; recombinant, probably pMALc2x (MBP fusion), E. coli
T2 sequence (Q9MBC2 1-1088): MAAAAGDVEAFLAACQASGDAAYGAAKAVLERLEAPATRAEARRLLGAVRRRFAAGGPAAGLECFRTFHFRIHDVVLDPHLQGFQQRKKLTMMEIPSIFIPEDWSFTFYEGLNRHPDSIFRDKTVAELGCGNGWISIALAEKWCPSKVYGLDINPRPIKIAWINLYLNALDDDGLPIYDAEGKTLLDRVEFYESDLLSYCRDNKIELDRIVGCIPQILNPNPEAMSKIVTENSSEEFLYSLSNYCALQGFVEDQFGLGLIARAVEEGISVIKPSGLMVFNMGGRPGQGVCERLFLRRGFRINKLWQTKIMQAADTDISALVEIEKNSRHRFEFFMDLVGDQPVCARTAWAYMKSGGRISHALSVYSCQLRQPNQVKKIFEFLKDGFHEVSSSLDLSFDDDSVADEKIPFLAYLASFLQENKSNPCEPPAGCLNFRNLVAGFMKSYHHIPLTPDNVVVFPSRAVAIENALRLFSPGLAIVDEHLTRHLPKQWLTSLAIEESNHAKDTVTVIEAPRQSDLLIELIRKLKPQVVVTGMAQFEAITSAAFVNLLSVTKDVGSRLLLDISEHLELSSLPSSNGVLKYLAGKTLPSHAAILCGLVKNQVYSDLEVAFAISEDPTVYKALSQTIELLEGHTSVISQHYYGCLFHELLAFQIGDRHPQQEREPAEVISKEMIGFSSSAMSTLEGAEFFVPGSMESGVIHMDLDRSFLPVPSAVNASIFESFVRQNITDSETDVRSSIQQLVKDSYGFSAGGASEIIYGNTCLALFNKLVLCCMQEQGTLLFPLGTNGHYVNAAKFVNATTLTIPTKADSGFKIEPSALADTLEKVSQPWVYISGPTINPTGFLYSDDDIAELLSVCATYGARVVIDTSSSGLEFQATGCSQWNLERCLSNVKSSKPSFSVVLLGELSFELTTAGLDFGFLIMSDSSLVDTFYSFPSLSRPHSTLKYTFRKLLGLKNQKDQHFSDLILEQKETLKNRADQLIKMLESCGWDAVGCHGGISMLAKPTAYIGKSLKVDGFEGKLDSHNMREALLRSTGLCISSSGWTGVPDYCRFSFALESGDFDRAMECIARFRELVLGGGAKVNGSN

B1: SaSDC (SaODC), S-methylmethionine decarboxylase (Sporobolus anglicus) (protein)
chain: MVGGSPMPMQAMLVVPGVKDRKVLSFKGDALKENDAIRSITSSTPAQRSAFHVLDLAKVVDLYRAWRRALPNVRPYYAVKCNSEPALLGALAALGAGFDCASHAEIDAVLALGVHPSSIVYANPCKPESHLEHAAAAGVNLTTYDSEEEVAKVRRCHPRCELLLRIKGPDDEEAQCDLGIKYGALADEVVPLLRAAQRAGVPVAGVAFNVGSPASRMDLYRDAIEAARAAFDAAAGLGMPPMRVLDIGGGFTAGATFEEAAAVINDALARHFGDLPYVEVISEPGRYFVKKAITLAARVIGKRTRGEVREYWIDDGVYGSFNCVIMDHYKPRPRPLVTPRPGEAKYTSTVFGPTCDSQDMVVTGYKLPEMSVGDWLVFDDMGAYTTAAGSKFNGFDTSDIKIYLAYST
notes: full-length ORF from transcriptome, synthetic gene, pMALc2x (MBP fusion), E. coli BL21(DE3), amylose resin

Key:
[1] = molecular target: T1, MMT from Arabidopsis thaliana; experiment: in vitro MMT assay; assay type: biochemical; settings: 1 mM L-methionine, 1 mM S-adenosylmethionine, Tris-HCl 20 mM pH 7.2, DTT 1 mM, 25 °C
MMT from Hordeum vulgare = molecular target: T2, MMT from Hordeum vulgare; experiment: in vitro MMT assay; assay type: biochemical; settings: 1 mM L-methionine, 1 mM S-adenosylmethionine, Tris-HCl 20 mM pH 7.2, DTT 1 mM, 25 °C
[2] = substrate: C[S+](C)CC[C@H](N)C(=O)O; experiment: NMR initial rates of DMSP-amine formation; assay type: biochemical, Sporobolus anglicus; settings: Tris-HCl 20 mM pH 7.2, 0.1 mM pyridoxal 5'-phosphate, 25 °C

| Molecule | in vitro MMT assay [1] | in vitro MMT assay (MMT from Hordeum vulgare) | Km [2] [µM] |
| --- | --- | --- | --- |
| CSCC[C@H](N)C(=O)O [L-methionine] | SaMMT1 in vitro activity was comparable to previously characterised plant MMTs from Arabidopsis thaliana | plant MMTs from Arabidopsis thaliana and Hordeum vulgare |  |
| B1 |  |  | 2130 ± 200 |
